According to publication PMC7144325, “Discovery of novel ATAD2 bromodomain inhibitors that trigger apoptosis and autophagy in breast cells by structure-based virtual screening” (Journal of Enzyme Inhibition and Medicinal Chemistry, 2020):
“Also recorded” adds a separate entry of the source. Where two headings read alike, the source gives them in different places.

What was measured:
ATAD2 bromodomain [1] = target: T1, ATAD2 bromodomain (Homo sapiens, UniProt Q6PL18); experiment: TR-FRET assay, ATAD2 bromodomain; assay type: binding
T1 sequence (Q6PL18 980-1092 limits assumed): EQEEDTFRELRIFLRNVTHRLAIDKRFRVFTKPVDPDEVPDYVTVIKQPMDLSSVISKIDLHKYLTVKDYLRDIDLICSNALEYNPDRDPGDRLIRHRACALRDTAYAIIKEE
Procedure: (§1) The assay was performed by TR-FRET technology using recombinant bromodomain and BET Ligand[27]. The compounds were diluted in 100% DMSO. They were diluted 20 fold in 5% DMSO in Reaction Buffer and 2 µl of the dilution was added to a 20 µl reaction. The reaction mixture incubated for 180 min prior to reading the TR-FRET signal. TR-FRET was recorded as the ratio of the fluorescence of the acceptor and the donor dyes (acceptor/donor). Binding experiments were performed in duplicate at each concentration. The TR-FRET data were analysed using the computer software, Graphpad Prism.

MDA-MB-231 cells [2] = experiment: Cell viability assay (MTT), MDA-MB-231; assay type: cell-based; conditions: for antiproliferatory inhibition rate in cell viability assay: at 20 µM, MDA-MB-231 cells; for IC50: Homo sapiens, MDA-MB-231, MTT, read-out: IC50 antiproliferative, MDA-MB-231
Procedure: MDA-MB-231cells were purchased from American Type Culture Collection (ATCC, Manassas, VA, USA). Cells were cultured in DMEM with 10% foetal bovine serum and incubated with 5% CO2. Antibodies used in this study were as follow: ATAD2 (ab176319, abcam), c-Myc (ab32072, abcam), cMyc^Ser62 (ab51156, abcam), Bax(5023, CST), Bcl-2(15071, CST), caspase8(9746, CST), caspase-3 (9665, CST), AKT (4691, CST), mTOR (2983, CST), p-mTOR^Ser2448 (5536,CST), ULK1 (6439, CST), p-ULK1^Ser555 (5869, CST), p62 (5114, CST), Beclin1 (4122, CST), LC3B (3868, CST), β-actin (3700, CST).
(§2) Cells were dispensed in 96-well plates at a density of 5 × 10^4 cells/ml. After 24 h incubation, cells were treated with different concentrations of compounds for the indicated periods. Cell viability was measured by the MTT assay.

BRD2(1) = target: T2, BRD2(1) (Homo sapiens, UniProt P25440); experiment: TR-FRET assay, BRD2(1); assay type: binding
T2 construct: against the first and second bromodomains of BRD2, BRD3 and BRD4
T2 sequence (P25440 74-180 limits assumed): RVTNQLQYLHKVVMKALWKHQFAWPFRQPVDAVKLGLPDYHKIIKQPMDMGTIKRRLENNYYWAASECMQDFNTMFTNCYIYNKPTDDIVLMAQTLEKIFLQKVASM
Procedure: as §1

BRD2(2) = target: T3, BRD2(2) (Homo sapiens, UniProt P25440); experiment: TR-FRET assay, BRD2(2); assay type: binding
T3 construct: against the first and second bromodomains of BRD2, BRD3 and BRD4
T3 sequence (P25440 344-453 limits assumed): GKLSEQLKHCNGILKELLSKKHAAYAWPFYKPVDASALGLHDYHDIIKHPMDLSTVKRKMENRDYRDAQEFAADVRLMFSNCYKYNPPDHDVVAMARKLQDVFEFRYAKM
Procedure: as §1

BRD3(1) = target: T4, BRD3(1) (Homo sapiens, UniProt Q15059); experiment: TR-FRET assay, BRD3(1); assay type: binding
T4 construct: against the first and second bromodomains of BRD2, BRD3 and BRD4
T4 sequence (Q15059 34-140 limits assumed): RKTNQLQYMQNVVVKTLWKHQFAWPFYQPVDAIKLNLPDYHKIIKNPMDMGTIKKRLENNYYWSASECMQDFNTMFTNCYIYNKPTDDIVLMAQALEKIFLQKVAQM
Procedure: as §1

BRD3(2) = target: T5, BRD3(2) (Homo sapiens, UniProt Q15059); experiment: TR-FRET assay, BRD3(2); assay type: binding
T5 construct: against the first and second bromodomains of BRD2, BRD3 and BRD4
T5 sequence (Q15059 306-415 limits assumed): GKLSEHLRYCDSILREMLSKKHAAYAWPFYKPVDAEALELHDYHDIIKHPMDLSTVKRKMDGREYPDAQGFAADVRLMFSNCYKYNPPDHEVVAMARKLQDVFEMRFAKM
Procedure: as §1

BRD4(1) = target: T6, BRD4(1) (Homo sapiens, UniProt O60885); experiment: TR-FRET assay, BRD4(1); assay type: binding
T6 construct: against the first and second bromodomains of BRD2, BRD3 and BRD4
Procedure: as §1

BRD4(2) = target: T7, BRD4(2) (Homo sapiens, UniProt O60885); experiment: TR-FRET assay, BRD4(2); assay type: binding
T7 construct: against the first and second bromodomains of BRD2, BRD3 and BRD4
Procedure: as §1

BRD2-4 = experiment: TR-FRET selectivity, statement for BRD2, BRD3 and BRD4 together; assay type: binding; conditions: first and second bromodomains
Procedure: as §1

[3] = tested on: MDA-MB-231, MDA-MB-436, MDA-MB-468, BT474 and MCF-7 cells; experiment: Anti-proliferation activity on breast cancer cell panel (MTT); assay type: cell-based; conditions: MDA-MB-231, MDA-MB-436, MDA-MB-468, BT474 and MCF-7 cells (Figure S1)
Procedure: as §2

MDA-MB-231 cells [4] = experiment: Apoptosis assay, flow cytometry of Annexin-V/PI double staining; assay type: cell-based; conditions: MDA-MB-231, 1.25, 2.5 and 5 μM, 24 h
MDA-MB-231 cells [5] = experiment: TUNEL apoptosis assay; assay type: cell-based; conditions: MDA-MB-231, 2.5 μM, 24 h
Procedure: TUNEL staining was also used to detect cell apoptosis. Cells were treated with DMSO or AM879 and then formalin-fixed.

[6] = tested on: ATAD2, c-Myc, p-cMyc in MDA-MB-231 cells; experiment: Western blot of ATAD2, c-Myc and p-cMyc; assay type: cell-based; conditions: MDA-MB-231, 1.25, 2.5 and 5.0 µM, 24 h
Procedure: (§3) Adherent and floating cells were collected after treatment with AM879 for indicated times. Cells were lysed in a lysis buffer consisting of Hepes 50 mM pH 7.4, Triton-X-100 1%, sodium orthovanada 2 mM, sodium fluoride 100 mM, edetic acid 1 mM, PMSF 1 mM, aprotinin (Sigma, MO, USA) 10 mg/L and leupeptin (Sigma) 10 mg/L at 4 °C for 1 h. After 12,000 rpm centrifugation for 15 min, the protein content of supernatant was determined by the Bio-Rad DC protein assay (Bio-Rad Laboratories, Hercules, CA, USA). Equal amounts of the total protein were separated by 10–15% SDS-PAGE and transferred to PVDF membranes, and the membranes were soaked in blocking buffer (5% skimmed milk or BSA). Proteins were detected using primary antibodies, followed by HRP-conjugated secondary antibody and visualised by using ECL as the HRP substrate. Quantity One 4.4 was used to quantify.

[7] = tested on: Bax, Bcl-2, Caspase8, Caspase3 in MDA-MB-231 cells; experiment: Western blot of Bax, Bcl-2, Caspase8 and Caspase3; assay type: cell-based; conditions: MDA-MB-231, 1.25, 2.5 and 5 μM, 24 h
Procedure: as §3

[8] = tested on: PI3K-AKT-mTOR signalling in MDA-MB-231 cells; experiment: Western blot of PI3K-AKT-mTOR signalling; assay type: cell-based; conditions: MDA-MB-231, 1.25, 2.5, 5 µM, 24 h
Procedure: as §3

MDA-MB-231 cells [9] = experiment: Autophagy assay, GFP/mRFP-LC3 puncta; assay type: cell-based; conditions: MDA-MB-231, GFP-mRFP-LC3, 24 h
[10] = tested on: ULK1, p-ULK1, Beclin 1, p62, LC3 in MDA-MB-231 cells; experiment: Western blot of ULK1, p-ULK1, Beclin 1, SQSTM1/p62 and LC3; assay type: cell-based; conditions: MDA-MB-231, 1.25, 2.5, 5 µM, 24 h
Procedure: as §3

[11] = design: method as in PMID 29043777, PMID 30226378, PMID 31398032; conditions: in vitro or vivo cellular assays; cited from earlier work
[12] = design: method as in PMID 27530368; conditions: in vivo as printed; cited from earlier work
ATAD2 bromodomain [13] = target: T1, ATAD2 bromodomain; conditions: cited from earlier work
BET = tested on: BET; design: method as in PMID 26230603; conditions: ATAD2 over BET; cited from earlier work

For `CCn1c(SCC(C)=O)nc2c1c(=O)[nH]c(=O)n2C` [AG-690], the inhibition at 20 µM (ATAD2 bromodomain [1]; at 20 µM, read-out: ATAD2 enzyme inhibition rate) was 79% and the “antiproliferatory inhibition rate in cell viability assay” value (MDA-MB-231 cells [2]) was “less potency than AM879”.
For `CC1=C(C#N)c2nc(N)c(C#N)c(C)c2/C1=C\c1ccc(-c2cc(C(=O)O)ccc2Cl)o1` [AM879], the IC50 (ATAD2 bromodomain [1]; Table 3, read-out: IC50 ATAD2) was 3.56 µM, the IC50 (BRD2(1)) was greater than 50 µM and the IC50 (BRD2(2)) was greater than 50 µM. The IC50 (BRD3(1)) was greater than 50 µM, the IC50 (BRD3(2)) was greater than 50 µM and the IC50 (BRD4(1)) was greater than 50 µM. For the same compound, the IC50 (BRD4(2)) was greater than 50 µM, the “inhibitory activity against BRD2-4” value (BRD2-4) was “no inhibitory activity” and the “inhibitory activity against BRD2-4” value (BRD2-4; listed as AM-879) was “no activity”. It also gave an IC50 (MDA-MB-231 cells [2]; 24 h) of 2.43 µM, an IC50 (MDA-MB-231 cells [2]; 48 h) of 2.06 µM and an IC50 (MDA-MB-231 cells [2]; 72 h) of 1.05 µM. The “antiproliferatory inhibition rate in cell viability assay” value (MDA-MB-231 cells [2]) was 90%, the “anti-proliferation activity on breast cancer cells” value [3] was “potent antiproliferatory activity” and the “apoptotic cells by Annexin-V/PI staining” value (MDA-MB-231 cells [4]) was “significant increase in early and late apoptotic cells”. For the same compound, the “apoptosis by TUNEL assay” value (MDA-MB-231 cells [5]) was “obvious FITC fluorescence were aggregated in the nucleus”, the “expression of ATAD2, c-Myc and p-cMyc” value [6] was “suppressed the expression of c-Myc; also recorded: inhibited the expression of ATAD2, c-Myc and the phosphorylation of c-Myc” and the “expression of Bax, Bcl-2, Caspase8 and Caspase3” value [7] was “elevated the expression of Bax, reduced the expression of Bcl-2, accompanied with the cleavage of caspase3 and caspase8”. For the same compound, the “PI3K-AKT-mTOR signalling protein expression” value [8] was “obviously downregulated expression of PI3K, AKT, mTOR and mTOR^Ser2448”, the “autophagy induction (LC3 puncta)” value (MDA-MB-231 cells [9]) was “obvious aggregation of LC3 puncta” and the “autophagy induction (LC3 puncta)” value (MDA-MB-231 cells [9]; listed as AM978) was “induce autophagy”. The “expression of ULK1, p-ULK1, Beclin 1, SQSTM1/p62 and LC3-II” value [10] was “elevation of ULK1, p-ULK1, Beclin 1 and LC3-II in a dose-dependent manner, as well as degradation of SQSTM1/p62”.
For `COc1cc(Cl)c(C(=O)N[C@@H](CN[C@H]2CC[C@@H](N)CC2)Cc2ccc(C#N)cc2)cc1-c1ccc(CN[C@H](C)c2ccc(C)cc2)o1` [BAY-850, reference compound], the IC50 (ATAD2 bromodomain [1]; read-out: IC50 against ATAD2 bromodomain) is listed as 0.242 µM and the “activity in cellular assays” value [11] is listed as “lack activity”.
In the case of `CO[C@H]1CNC[C@@H](OCC2CCC(F)(F)CC2)[C@@H]1Nc1ncc(-c2cncc(C)c2)c2cc(C)c(=O)[nH]c12` [GSK8814], the antiproliferative activity [12] is listed as “weak antiproliferative”.
In the case of `CC1(C2CC2)NC(=O)N(CC(=O)Nc2ccc(Br)c(S(=O)(=O)N3CCCCC3)c2)C1=O` (stereo not shown) [compound 23], the “activity in cellular assays” value [11] is listed as “lack activity”.
In the case of `Cc1ccc(-c2cnc(NC3CC4CCC(N4)C3CCC3CCC(F)(F)CC3)c3[nH]c(=O)c(C)cc23)cn1` (stereo not shown) [compound 26], the “activity in cellular assays” value [11] is listed as “lack activity”.
For `Cc1cncc(-c2cnc(N[C@@H]3CCNC[C@H]3OCC3CCS(=O)(=O)CC3)c3[nH]c(=O)c(C)cc23)c1` [compound 38], the ATAD2 potency (ATAD2 bromodomain [13]) is listed as 0.1 µM and the BET selectivity (BET) is listed as 100 fold.
